Assay results from PMC5320532, “Intracellular drug bioavailability: a new predictor of system dependent drug disposition” (Scientific Reports, 2017).
Entries after “also recorded” stand apart in the source; their conditions may differ. Read-outs that look alike come from different tables or passages of the source.

What was measured:
P-gp [1] = test: Intracellular compound accumulation (Kp) and intracellular bioavailability (Fic); conditions: dog, P-gp-transfected MDCK cells
Procedure: (§1) To determine intracellular unbound compound concentrations, we measured intracellular fraction of unbound compound (fu,cell) in parallel with total intracellular compound accumulation (Ccell), as described below. Intracellular compound bioavailability (Fic) was calculated as the ratio between intracellular unbound compound concentration (Cu,cell = fu,cell∙Ccell) (the concentration available to bind intracellular targets) and the externally added compound concentration (Cmedium):
(§2) HEK293 cells were grown for two days in 24-well plates, as previously described[25]. MDCK cells were grown for two days in 96-well plates, prior to the intracellular compound accumulation experiments. The growth media were the same as described in the section ‘Cell line maintenance’ without addition of hygromycin B to avoid transporter inhibition.
(§3) Intracellular compound accumulation at steady-state was measured essentially as described before[25]. Briefly, cells were washed twice with HBSS and incubated for 45 min with solutions of single test compounds (in HBSS) on an orbital shaker (300 rpm) at 37 °C. At the end of the experiment, the remaining extracellular compound solutions were collected and cells were washed twice with ice-cold phosphate-buffered saline pH 7.4 (PBS). For hepatocytes in suspension, the cells were separated from the extracellular solutions by centrifugation (100 × g for 5 min). Compounds were extracted from the cells using acetonitrile/water (60:40) spiked with 50 nM warfarin (internal standard). Extracellular medium samples were diluted 10-fold with the same extraction solution. […] Protein concentrations were measured in representative wells of the plates using the BCA Protein Assay Reagent Kit (Thermo Fisher Scientific Inc.).
(§4) The ratio between total compound concentrations in the cells and in the medium (Kp) was calculated according to:
(§5) where Acell is the amount of compound in the cell samples, Vcell is the cell volume (6.5 μL/mg protein[80]), and Cmedium is the compound concentration in the medium sample.

P-gp [2] = test: as above; conditions: dog, P-gp-KO (CRISPR) MDCK cells
Procedure: as §1, §2, §3, §4, §5

[3] = Intracellular fraction of unbound compound (fu,cell), dialysis of cell homogenate; conditions: human, mock-transfected HEK293 cell homogenate
in vitro [4] = conditions: dog
[5] = Intracellular fraction of unbound compound (fu,cell), dialysis of cell homogenate; format: in vitro ADME; conditions: human; OATP1B1-transfected HEK293 cell homogenate; geometrical mean ± S.E.M.; read-out: Cell binding (fu,cell)
Procedure: For intracellular fraction of unbound compound experiments, cell lines or primary cells were suspended to a concentration of 10 × 10^6 cells/ml in Hank’s balanced salt solution (HBSS). Cell suspensions were homogenized for 10 s with a VCX-500 ultrasonic processor (Sonics & Materials) at 20% intensity and used immediately for binding experiments.
Binding to cell homogenates at steady-state was measured using dialysis as previously described. […] Briefly, the cell homogenate was spiked with six randomly-chosen compounds. Homogenates were dialyzed for 4 h using a Rapid Equilibrium Dialysis device (Thermo Fisher Scientific Inc.). At the end of the incubation, uniform sample matrices were obtained by addition of blank homogenate to samples from the buffer chamber, and by addition blank buffer to samples from the homogenate chamber. Dilutions of samples from the homogenate chambers (10-fold and 100-fold) were prepared. […] Compounds in the supernatant were analyzed by ultra-performance liquid chromatography coupled to tandem mass spectrometry (UPLC-MS/MS), as described below.
The fraction of compound that was not bound to cell homogenate (fu,hom) was calculated according to: […]
where PAbuffer is the peak area of compound in the buffer chamber and PAhom is the peak area of compound in the homogenate chamber, both corrected for the peak area of the internal standard in the respective chamber. For each compound, the dilution of the homogenate sample where PAhom was closest to PAbuffer was used.
The fraction of unbound compound in the cell (fu,cell) was calculated according to: […]

[6] = Intracellular compound accumulation (Kp) and intracellular bioavailability (Fic); format: in vitro ADME; conditions: geometrical mean ± S.E.M.; for Kp at 45 min: freshly isolated human hepatocytes in suspension; for Kp at 24 h: human hepatocytes cultured for 24 h in monolayer format, Monolayer hepatocytes (human, 24 h culture)
Procedure: where Kp is the ratio Ccell/Cmedium.
Hepatocytes were isolated from human liver tissue obtained from two donors undergoing surgical resections at the Department of Surgery, Uppsala University Hospital. […] Isolation was performed using a two-step collagenase procedure, as previously described.
For the corresponding experiments in human hepatocytes, two cell culture configurations were used: freshly isolated cells in suspension, or cells cultivated as monolayers for 24 h. The freshly isolated cells were suspended directly after isolation at a concentration of 5 × 10^6 cells/ml in HBSS. The cell suspension (100 μl) was added to 96-well plates, which were immediately used for accumulation experiments. […] After cell attachment, medium was replaced by hepatocyte maintenance medium (Lonza) supplemented with insulin (10 μg/ml), transferrin (5.5 μg/ml), selenium (5 ng/ml), penicillin (100 units/ml), streptomycin (100 μg/ml), and dexamethasone (0.1 μM). Cells were kept in maintenance medium for 24 h, until the start of the intracellular compound accumulation experiments.

OATP1B1 [7] = test: as above; conditions: human, OATP1B1-transfected HEK293 cells
Procedure: as §1, §2, §3, §4, §5

[8] = Intracellular fraction of unbound compound (fu,cell), dialysis of cell homogenate; format: in vitro ADME; conditions: freshly isolated human hepatocyte homogenate; geometrical mean ± S.E.M.; read-out: fu,cell hepatocytes
[9] = Intracellular compound accumulation (Kp) and intracellular bioavailability (Fic); conditions: human, mock-transfected HEK293 cells
Procedure: as §1, §2, §3, §4, §5

P-gp [10] = test: as above; conditions: dog, MDCK II wild-type cells
Procedure: as §1, §2, §3, §4, §5

[11] = Intracellular fraction of unbound compound (fu,cell), dialysis of cell homogenate; conditions: dog, homogenate of MDCK cells transfected with human P-gp
OATP1B1 [12] = conditions: dot = substrate; collated from literature ref 74, 75, 76; cited from earlier work
P-gp [13] = system: P-gp; set-up: method as in earlier work; conditions: dot = substrate; collated from literature ref 74, 75, 76; cited from earlier work
[14] = set-up: method as in PMID 19785645; conditions: human subjects; co-administration of cyclosporine A ref 58; cited from earlier work
[15] = system: P-gp-transfected MDCK cells (+ elacridar); conditions: dog, MDCK-MDR1
P-gp [16] = test: in vitro; conditions: dog
Procedure: as §1, §2, §3, §4, §5

[17] = system: P-gp-transfected MDCK cells; conditions: dog
Procedure: as §1, §2, §3, §4, §5

[18] = system: OATP1B1-transfected HEK293 cells; conditions: human
Procedure: as §1, §2, §3, §4, §5

[19] = system: P-gp-KO (CRISPR) MDCK cells; conditions: dog
Procedure: as §1, §2, §3, §4, §5

MDCK II wild-type cells = conditions: dog
Procedure: as §1, §2, §3, §4, §5

in vitro [20] = conditions: human
[21] = system: mock-transfected HEK293 cells; conditions: human
Procedure: as §1, §2, §3, §4, §5

[22] = system: P-gp-transfected MDCK cells; test: Intracellular compound accumulation (Kp) and intracellular bioavailability (Fic); conditions: 0.5 μM; ratio cP-gp-KO/P-gp-transfected
Procedure: as §1, §2, §3, §4, §5

[23] = system: primary human hepatocytes; test: Metabolic clearance (CLint) in primary human hepatocytes; format: in vitro ADME; conditions: 1 μM; freshly isolated human hepatocytes in suspension vs after 24 h in monolayer
Procedure: Metabolic clearance (CLint) was determined, as previously described. […] At time points 0, 10, 30, and 60 min, the reaction was stopped by addition of acetonitrile (200 μl) spiked with 50 nM warfarin (internal standard). […] CLint was calculated as the product of the compound disappearance rate and incubation volume, normalized by the cell number.

Compound | Kp at 45 min, 0.5 μM (P-gp [1]) | Kp at 45 min, 0.5 μM (P-gp [2]) | fraction unbound at 4 h [3] | fraction unbound at 4 h [5] | Kp at 45 min, 0.1 μM (OATP1B1 [7]) | Kp at 45 min, 0.1 μM [9] | Kp at 45 min (P-gp [10]) | fraction unbound at 4 h [11] | OATP1B1 substrate (OATP1B1 [12]) | P-gp substrate (P-gp [13]) | also measured
COc1ccc(CCN2CCC(Nc3nc4ccccc4n3Cc3ccc(F)cc3)CC2)cc1 [Astemizole] | 995 ± 94 | 2010 ± 200 | 0.0018 ± 0.0006 | 0.0013 ± 0.0004 | 738 ± 576 | 821 ± 253 | 1680 ± 71 |  |  |  | fraction unbound (in vitro [4]): 1e-05 ± 2e-05; Kp at 45 min [6]: 1990 ± 1090; Kp at 24 h [6]: 1600 ± 308; fraction unbound at 4 h [8]: 0.00036 ± 0.00012
CCOc1nc2cccc(C(=O)O)c2n1Cc1ccc(-c2ccccc2-c2nnn[nH]2)cc1 [Candesartan] | 2 ± 0.4 | 7.8 ± 2.3 | 0.093 ± 0.011 | 0.094 ± 0.002 | 2.8 ± 0.5 | 1.4 ± 0.2 | 2.2 ± 0.3 | 0.29 ± 0.02 | ● | ● | 
COc1ccc2c(c1)c(CC(=O)O)c(C)n2C(=O)c1ccc(Cl)cc1 [Indomethacin] | 18 ± 2 | 25 ± 2 | 0.053 ± 0.006 | 0.065 ± 0.004 | 14 ± 1 | 13 ± 2 | 22 ± 2 | 0.025 ± 0.005 |  |  | Kp at 45 min [6]: 50 ± 17; Kp at 24 h [6]: 49 ± 4; fraction unbound at 4 h [8]: 0.048 ± 0.012
CN(C)C(=O)C(CCN1CCC(O)(c2ccc(Cl)cc2)CC1)(c1ccccc1)c1ccccc1 [Loperamide] |  |  |  |  |  |  |  |  |  | ● | intracellular bioavailability (Fic) [15]: 0.33±0.33; Kp (P-gp [16]): 987 ± 198; intracellular bioavailability (Fic) [17]: 0.13±0.13; intracellular bioavailability (Fic) [18]: 6.8±1.8; intracellular bioavailability (Fic) [19]: 0.34±0.35; intracellular bioavailability (Fic) (MDCK II wild-type cells): 0.50±0.51; fraction unbound (in vitro [20]): 0.0078 ± 0.0008; fraction unbound (in vitro [4]): 0.00051 ± 0.00051; intracellular bioavailability (Fic) [21]: 4.3±1.7
O=C(O)C[C@H](O)C[C@H](O)/C=C/c1c(C2CC2)nc2ccccc2c1-c1ccc(F)cc1 [Pitavastatin] | 11 ± 2 | 13 ± 1 | 0.023 ± 0.005 | 0.025 ± 0.006 | 35 ± 3 | 4.2 ± 0.3 | 11 | 0.023 ± 0.005 | ● | ● | increase of AUC by cyclosporine A [14]: 5- to 15 fold; fraction unbound at 4 h [8]: 0.017 ± 0.011
CC(C)c1nc(CN(C)C(=O)N[C@H](C(=O)N[C@@H](Cc2ccccc2)C[C@H](O)[C@H](Cc2ccccc2)NC(=O)OCc2cncs2)C(C)C)cs1 [Ritonavir] |  |  |  |  |  |  |  |  |  | ● | metabolic clearance (CLint), suspension vs monolayer hepatocytes [23]: higher rates; also recorded: reduced
CN(CCOc1ccc(CC2SC(=O)NC2=O)cc1)c1ccccn1 (stereo not shown) [Rosiglitazone] | 30 ± 4 | 67 ± 11 | 0.058 ± 0.004 | 0.044 ± 0.001 | 15 ± 2 | 19 ± 2 | 38 ± 7 | 0.021 ± 0.003 |  |  | Kp at 45 min [6]: 152 ± 12; Kp at 24 h [6]: 196 ± 17; fraction unbound at 4 h [8]: 0.02 ± 0.006
CCC(C)(C)C(=O)O[C@H]1C[C@@H](C)C=C2C=C[C@H](C)[C@H](CC[C@@H](O)C[C@@H](O)CC(=O)O)[C@H]21 [Simvastatin acid] | 36 ± 2 |  | 0.019 ± 0.003 | 0.021 ± 0.001 | 64 ± 6 | 41 ± 4 | 72 ± 6 | 0.0097 ± 0.0012 | ● | ● | 
CC(C)(C)NCC(O)COc1ccc(NC(=O)NC2CCCCC2)cc1 (stereo not shown) [Talinolol] |  |  |  |  |  |  |  |  |  |  | fraction unbound (in vitro [20]): 0.074 ± 0.003

Second part, led by results:

Kp at 45 min, 0.5 μM (P-gp [1]) | Kp at 45 min, 0.5 μM (P-gp [2]) | fraction unbound at 4 h [3] | fraction unbound at 4 h [5] | Kp at 45 min, 0.1 μM (OATP1B1 [7]) | Kp at 45 min, 0.1 μM [9] | Kp at 45 min (P-gp [10]) | fraction unbound at 4 h [11] | Compound | OATP1B1 substrate (OATP1B1 [12]) | P-gp substrate (P-gp [13]) | also measured
2 ± 0.6 | 2.2 ± 0.4 | 0.23 ± 0.01 | 0.19 ± 0.01 | 0.86 ± 0.1 | 0.5 ± 0.05 | 1.3 ± 0.2 | 1 | CCOC(=O)[C@H](CCc1ccccc1)N[C@@H](C)C(=O)N1CCC[C@H]1C(=O)O [Enalapril] | ● |  | 
21 ± 2 | 53 ± 4 | 0.017 ± 0.003 | 0.015 ± 0.001 | 94 ± 12 | 45 ± 6 | 35 ± 5 | 0.0099 ± 0.0026 | CC(C)n1c(/C=C/C(O)CC(O)CC(=O)O)c(-c2ccc(F)cc2)c2ccccc21 (stereo not shown) [Fluvastatin] | ● | ● | increase of AUC by cyclosporine A [14]: 3- to 4 fold
53 ± 19 | 1080 ± 50 | 0.00039 ± 8e-05 | 0.00044 ± 0.0001 | 652 ± 228 | 337 ± 113 | 494 ± 74 | 0.0001 ± 4e-05 | Cc1c(O)cccc1C(=O)N[C@@H](CSc1ccccc1)[C@H](O)CN1C[C@H]2CCCC[C@H]2C[C@H]1C(=O)NC(C)(C)C [Nelfinavir] |  | ● | Fic fold lower in P-gp-transfected than in cP-gp-KO MDCK cells [22]: 20 fold
32 ± 1 | 56 ± 4 | 0.016 ± 0.001 | 0.019 ± 0.003 | 73 ± 9 | 68 ± 8 | 52 ± 5 | 0.0069 ± 0.0008 | CCOc1cc(CC(=O)N[C@@H](CC(C)C)c2ccccc2N2CCCCC2)ccc1C(=O)O [Repaglinide] | ● | ● | 
96 ± 10 | 214 ± 35 | 0.0033 ± 0.0013 | 0.0027 ± 0.0004 | 302 ± 96 | 272 ± 43 | 98 ± 9 | 0.0028 ± 0.0011 | CC(C)(C)NC(=O)[C@@H]1C[C@@H]2CCCC[C@@H]2CN1C[C@@H](O)[C@H](Cc1ccccc1)NC(=O)[C@H](CC(N)=O)NC(=O)c1ccc2ccccc2n1 [Saquinavir] | ● | ● | 
